Reference: publication PMC8429728, “TNK1 is a ubiquitin-binding and 14-3-3-regulated kinase that can be targeted to block tumor growth” (Nature Communications, 2021)
Like-named read-outs stand apart in the source and are kept apart here.

Tests used:
Experiment in all cases: biochemical
Set-up in all cases: Reaction Biology 371-kinase panel at Km ATP, per cent enzyme activity relative to DMSO, single dose in duplicate
EPHA7 = EPHA7 (Homo sapiens, UniProt Q15375); settings: duplicate measurements, Km ATP
Chain of EPHA7 (Q15375 whole entry): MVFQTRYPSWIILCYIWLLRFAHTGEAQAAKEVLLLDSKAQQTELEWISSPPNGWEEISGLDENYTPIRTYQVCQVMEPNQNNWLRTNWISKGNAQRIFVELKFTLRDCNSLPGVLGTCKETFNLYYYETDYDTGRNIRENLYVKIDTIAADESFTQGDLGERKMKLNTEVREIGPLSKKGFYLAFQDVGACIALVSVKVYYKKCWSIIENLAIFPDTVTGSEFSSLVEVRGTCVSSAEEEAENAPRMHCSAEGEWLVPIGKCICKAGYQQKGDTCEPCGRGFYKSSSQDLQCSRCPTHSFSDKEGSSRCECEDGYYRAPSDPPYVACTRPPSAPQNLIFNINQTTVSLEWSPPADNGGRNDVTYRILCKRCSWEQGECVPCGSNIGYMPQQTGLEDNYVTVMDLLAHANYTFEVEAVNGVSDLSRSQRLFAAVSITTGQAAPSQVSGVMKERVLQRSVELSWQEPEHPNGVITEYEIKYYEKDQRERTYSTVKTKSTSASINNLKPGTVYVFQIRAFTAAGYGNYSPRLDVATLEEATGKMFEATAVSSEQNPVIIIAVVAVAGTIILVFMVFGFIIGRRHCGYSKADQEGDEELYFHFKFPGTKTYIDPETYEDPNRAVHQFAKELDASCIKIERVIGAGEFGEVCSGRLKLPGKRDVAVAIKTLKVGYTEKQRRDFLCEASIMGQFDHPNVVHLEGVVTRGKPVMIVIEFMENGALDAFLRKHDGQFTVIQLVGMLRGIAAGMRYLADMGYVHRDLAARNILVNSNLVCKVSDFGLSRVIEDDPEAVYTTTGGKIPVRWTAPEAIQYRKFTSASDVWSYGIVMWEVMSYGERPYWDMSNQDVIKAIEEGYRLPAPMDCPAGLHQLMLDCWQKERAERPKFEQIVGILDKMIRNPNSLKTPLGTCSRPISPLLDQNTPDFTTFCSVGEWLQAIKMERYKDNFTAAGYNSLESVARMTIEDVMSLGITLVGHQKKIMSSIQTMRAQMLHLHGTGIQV
In short: (§1)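 First, kinases from a 371-member panel were exposed in vitro to 300 nM inhibitor. Next, % enzyme activity versus DMSO was computed. Finally, IC50s were derived by sigmoidal dose-response fitting with variable slope and a zero bottom constraint.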

GRK5 = GRK5 (Homo sapiens, UniProt P34947); settings: duplicate measurements, Km ATP
In short: as §1

TIE2/TEK = TIE2/TEK (Homo sapiens, UniProt Q02763); settings: duplicate measurements, Km ATP
In short: as §1

NEK4 = NEK4 (Homo sapiens, UniProt P51957); settings: duplicate measurements, Km ATP; read-out: % Enzyme Activity (relative to DMSO controls) / TP-0005801 (0.3µM) / Data 1
In short: as §1

DYRK2 = DYRK2 (Homo sapiens, UniProt Q92630); settings: duplicate measurements, Km ATP
In short: as §1

CAMK2d = CAMK2d (Homo sapiens, UniProt Q13557); settings: duplicate measurements, Km ATP
In short: as §1

MKK7 = biological target: T1, MKK7 (Homo sapiens, UniProt O14733); settings: duplicate measurements, Km ATP
T1 construct: gene MAP2K7
In short: as §1

RAF1 = RAF1 (Homo sapiens, UniProt P04049); settings: duplicate measurements, Km ATP
In short: as §1

PLK4/SAK = PLK4/SAK (Homo sapiens, UniProt O00444); settings: duplicate measurements, Km ATP
Chain of PLK4/SAK (O00444 whole entry): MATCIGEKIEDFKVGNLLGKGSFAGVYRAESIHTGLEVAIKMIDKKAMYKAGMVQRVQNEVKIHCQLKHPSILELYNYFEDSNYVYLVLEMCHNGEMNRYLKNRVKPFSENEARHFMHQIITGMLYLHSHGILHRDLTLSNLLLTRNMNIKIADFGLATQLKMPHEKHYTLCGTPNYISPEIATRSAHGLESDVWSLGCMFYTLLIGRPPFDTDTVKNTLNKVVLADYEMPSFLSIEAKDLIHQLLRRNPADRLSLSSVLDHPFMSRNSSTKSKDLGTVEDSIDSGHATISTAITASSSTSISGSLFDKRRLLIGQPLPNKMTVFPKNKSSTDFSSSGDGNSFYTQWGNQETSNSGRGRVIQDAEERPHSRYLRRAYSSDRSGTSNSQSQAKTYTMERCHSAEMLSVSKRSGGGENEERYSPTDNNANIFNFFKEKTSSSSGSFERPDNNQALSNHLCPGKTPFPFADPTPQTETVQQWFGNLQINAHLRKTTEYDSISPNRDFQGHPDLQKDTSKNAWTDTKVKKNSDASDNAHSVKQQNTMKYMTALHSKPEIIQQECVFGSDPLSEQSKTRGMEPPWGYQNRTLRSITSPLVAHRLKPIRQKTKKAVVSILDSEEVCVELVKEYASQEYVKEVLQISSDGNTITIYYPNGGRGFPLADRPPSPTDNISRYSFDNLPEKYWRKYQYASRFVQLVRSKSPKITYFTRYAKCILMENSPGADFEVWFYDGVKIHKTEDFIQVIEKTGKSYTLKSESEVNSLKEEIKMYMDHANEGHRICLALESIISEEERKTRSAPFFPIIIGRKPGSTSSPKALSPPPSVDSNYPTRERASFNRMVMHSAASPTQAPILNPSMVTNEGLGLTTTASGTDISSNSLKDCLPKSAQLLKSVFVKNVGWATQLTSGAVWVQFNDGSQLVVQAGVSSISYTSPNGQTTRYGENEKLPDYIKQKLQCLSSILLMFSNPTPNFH
In short: as §1

MEKK3 = biological target: T2, MEKK3 (Homo sapiens, UniProt Q99759); settings: duplicate measurements, Km ATP
T2 construct: gene MAP3K3
In short: as §1

AXL = AXL (Homo sapiens, UniProt P30530); settings: duplicate measurements, Km ATP
In short: as §1

STK21/CIT = STK21/CIT (Homo sapiens, UniProt O14578); settings: duplicate measurements, Km ATP
In short: as §1

EPHA5 = EPHA5 (Homo sapiens, UniProt P54756); settings: duplicate measurements, Km ATP
In short: as §1

EPHA3 = EPHA3 (Homo sapiens, UniProt P29320); settings: duplicate measurements, Km ATP
Chain of EPHA3 (P29320 whole entry): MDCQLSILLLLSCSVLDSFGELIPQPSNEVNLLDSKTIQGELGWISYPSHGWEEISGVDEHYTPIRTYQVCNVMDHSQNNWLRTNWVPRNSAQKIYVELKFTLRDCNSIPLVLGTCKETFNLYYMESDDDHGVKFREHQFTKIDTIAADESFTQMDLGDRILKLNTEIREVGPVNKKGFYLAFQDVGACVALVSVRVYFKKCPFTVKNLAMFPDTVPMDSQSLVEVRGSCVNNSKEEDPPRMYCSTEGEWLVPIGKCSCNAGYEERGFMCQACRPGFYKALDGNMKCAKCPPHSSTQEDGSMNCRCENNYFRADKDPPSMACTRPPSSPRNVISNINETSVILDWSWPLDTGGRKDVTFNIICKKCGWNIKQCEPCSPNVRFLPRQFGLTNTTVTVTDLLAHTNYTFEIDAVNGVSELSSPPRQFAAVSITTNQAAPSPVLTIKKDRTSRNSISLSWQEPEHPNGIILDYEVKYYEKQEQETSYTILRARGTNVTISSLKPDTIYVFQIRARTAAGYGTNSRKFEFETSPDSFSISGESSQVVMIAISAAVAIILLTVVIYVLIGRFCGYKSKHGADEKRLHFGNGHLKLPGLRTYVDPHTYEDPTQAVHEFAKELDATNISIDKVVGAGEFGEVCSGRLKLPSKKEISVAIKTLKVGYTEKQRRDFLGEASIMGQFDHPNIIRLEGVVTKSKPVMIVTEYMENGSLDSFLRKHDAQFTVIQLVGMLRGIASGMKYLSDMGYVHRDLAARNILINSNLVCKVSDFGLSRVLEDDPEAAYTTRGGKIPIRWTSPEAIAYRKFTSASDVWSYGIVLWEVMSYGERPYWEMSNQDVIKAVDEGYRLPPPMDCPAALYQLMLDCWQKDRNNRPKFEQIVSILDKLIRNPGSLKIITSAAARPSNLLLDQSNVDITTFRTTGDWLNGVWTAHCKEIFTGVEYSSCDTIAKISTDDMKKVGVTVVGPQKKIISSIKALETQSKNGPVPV
In short: as §1

FGFR3 = FGFR3 (Homo sapiens, UniProt P22607); settings: duplicate measurements, Km ATP
Chain of FGFR3 (P22607 whole entry): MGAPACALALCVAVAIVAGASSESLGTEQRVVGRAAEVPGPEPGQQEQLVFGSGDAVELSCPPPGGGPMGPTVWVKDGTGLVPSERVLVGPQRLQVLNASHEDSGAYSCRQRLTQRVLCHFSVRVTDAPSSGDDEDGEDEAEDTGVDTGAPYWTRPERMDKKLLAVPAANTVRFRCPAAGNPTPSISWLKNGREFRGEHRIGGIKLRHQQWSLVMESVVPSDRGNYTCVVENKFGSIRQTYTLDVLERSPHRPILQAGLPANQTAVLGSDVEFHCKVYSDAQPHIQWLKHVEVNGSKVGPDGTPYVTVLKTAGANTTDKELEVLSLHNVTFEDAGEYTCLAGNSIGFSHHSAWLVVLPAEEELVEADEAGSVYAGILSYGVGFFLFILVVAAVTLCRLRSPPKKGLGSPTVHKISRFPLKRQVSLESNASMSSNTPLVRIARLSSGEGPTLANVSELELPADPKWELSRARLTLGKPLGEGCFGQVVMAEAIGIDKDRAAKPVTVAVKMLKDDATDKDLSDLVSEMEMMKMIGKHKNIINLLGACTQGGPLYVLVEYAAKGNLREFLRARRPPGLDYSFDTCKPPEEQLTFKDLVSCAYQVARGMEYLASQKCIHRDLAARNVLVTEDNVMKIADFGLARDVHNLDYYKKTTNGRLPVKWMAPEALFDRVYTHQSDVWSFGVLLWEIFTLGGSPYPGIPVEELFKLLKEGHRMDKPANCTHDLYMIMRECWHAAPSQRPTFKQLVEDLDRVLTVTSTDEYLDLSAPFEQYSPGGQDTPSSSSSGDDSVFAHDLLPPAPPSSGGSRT
In short: as §1

RSK4 = biological target: T3, RSK4 (Homo sapiens, UniProt Q9UK32); settings: duplicate measurements, Km ATP
T3 construct: gene RPS6KA6
In short: as §1

RSK1 = biological target: T4, RSK1 (Homo sapiens, UniProt Q15418); settings: duplicate measurements, Km ATP
T4 construct: gene RPS6KA1
In short: as §1

MSSK1/STK23 = biological target: T5, MSSK1/STK23 (Homo sapiens, UniProt Q9UPE1); settings: duplicate measurements, Km ATP
T5 construct: gene SRPK3
T5 sequence (Q9UPE1 whole entry): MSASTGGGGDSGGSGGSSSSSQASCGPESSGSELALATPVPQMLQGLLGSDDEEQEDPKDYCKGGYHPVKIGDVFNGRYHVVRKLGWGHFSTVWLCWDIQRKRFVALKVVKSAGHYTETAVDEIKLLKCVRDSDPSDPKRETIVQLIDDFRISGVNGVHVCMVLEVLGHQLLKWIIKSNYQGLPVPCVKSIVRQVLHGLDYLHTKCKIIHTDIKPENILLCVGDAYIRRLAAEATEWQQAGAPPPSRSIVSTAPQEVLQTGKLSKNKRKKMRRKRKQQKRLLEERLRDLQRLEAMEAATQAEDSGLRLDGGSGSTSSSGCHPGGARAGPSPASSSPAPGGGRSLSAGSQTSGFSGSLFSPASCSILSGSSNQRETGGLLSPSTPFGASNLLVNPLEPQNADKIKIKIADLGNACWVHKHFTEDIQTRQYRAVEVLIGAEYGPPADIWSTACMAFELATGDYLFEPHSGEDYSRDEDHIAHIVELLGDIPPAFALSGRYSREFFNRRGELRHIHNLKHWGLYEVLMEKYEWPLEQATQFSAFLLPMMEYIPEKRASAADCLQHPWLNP
In short: as §1

CDK3/cyclin E = CDK3/cyclin E (Homo sapiens, UniProt Q00526); settings: duplicate measurements, Km ATP
Chain of CDK3/cyclin E (Q00526 whole entry): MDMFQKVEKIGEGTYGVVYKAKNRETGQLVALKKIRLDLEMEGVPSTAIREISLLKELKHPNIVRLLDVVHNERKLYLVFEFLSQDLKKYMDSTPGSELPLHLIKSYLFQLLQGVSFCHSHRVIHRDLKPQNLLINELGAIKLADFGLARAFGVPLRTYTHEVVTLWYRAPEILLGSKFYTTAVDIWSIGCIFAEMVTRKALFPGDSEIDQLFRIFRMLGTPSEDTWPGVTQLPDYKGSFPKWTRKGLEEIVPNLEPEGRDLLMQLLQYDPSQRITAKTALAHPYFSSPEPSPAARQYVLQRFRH
Chain of CDK3/cyclin E (P24864 whole entry partner): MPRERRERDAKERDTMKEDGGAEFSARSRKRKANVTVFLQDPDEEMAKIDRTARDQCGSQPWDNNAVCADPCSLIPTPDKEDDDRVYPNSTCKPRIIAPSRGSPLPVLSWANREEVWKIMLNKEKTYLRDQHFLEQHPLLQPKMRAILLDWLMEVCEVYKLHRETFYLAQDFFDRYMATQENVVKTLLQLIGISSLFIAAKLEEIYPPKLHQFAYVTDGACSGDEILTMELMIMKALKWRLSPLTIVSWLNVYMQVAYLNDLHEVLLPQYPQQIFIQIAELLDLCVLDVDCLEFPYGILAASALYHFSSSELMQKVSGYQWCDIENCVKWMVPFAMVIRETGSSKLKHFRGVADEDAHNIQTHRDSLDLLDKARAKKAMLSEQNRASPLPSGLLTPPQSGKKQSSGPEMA
In short: as §1

LIMK2 = LIMK2 (Homo sapiens, UniProt P53671); settings: duplicate measurements, Km ATP
In short: as §1

[1] = read-out: % Enzyme Activity (relative to DMSO controls) / TP-0005801 (0.3µM) / Data 1
[2] = read-out: % Enzyme Activity (relative to DMSO controls) / TP-0005801 (0.3µM) / Data 2

remaining activity at 0.3 µM (EPHA7; [1]): 95.2% | remaining activity at 0.3 µM (EPHA7; [2]): 94% | remaining activity at 0.3 µM (GRK5; [1]): 92% | remaining activity at 0.3 µM (GRK5; [2]): 89.8% | remaining activity at 0.3 µM (TIE2/TEK; [1]): 83.6% | remaining activity at 0.3 µM (TIE2/TEK; [2]): 80.7% | remaining activity at 0.3 µM (NEK4): 122% | remaining activity at 0.3 µM (DYRK2; [1]): 94.2% | remaining activity at 0.3 µM (DYRK2; [2]): 90.5% | remaining activity at 0.3 µM (CAMK2d; [1]): 4.74% | remaining activity at 0.3 µM (CAMK2d; [2]): 4.45% | remaining activity at 0.3 µM (MKK7; [1]): 103% | remaining activity at 0.3 µM (MKK7; [2]): 102% | remaining activity at 0.3 µM (RAF1; [1]): 90.8% | remaining activity at 0.3 µM (RAF1; [2]): 90.2% | remaining activity at 0.3 µM (PLK4/SAK; [1]): 74.8% | remaining activity at 0.3 µM (PLK4/SAK; [2]): 72.8% | remaining activity at 0.3 µM (MEKK3; [1]): 92.4% | remaining activity at 0.3 µM (MEKK3; [2]): 88.5% | remaining activity at 0.3 µM (AXL; [1]): 89.2% | remaining activity at 0.3 µM (AXL; [2]): 86.3% | remaining activity at 0.3 µM (STK21/CIT; [1]): 107% | remaining activity at 0.3 µM (STK21/CIT; [2]): 105% | remaining activity at 0.3 µM (EPHA5; [1]): 122% | remaining activity at 0.3 µM (EPHA5; [2]): 117% | remaining activity at 0.3 µM (EPHA3; [1]): 103% | remaining activity at 0.3 µM (EPHA3; [2]): 97.5% | remaining activity at 0.3 µM (FGFR3; [1]): 107% | remaining activity at 0.3 µM (FGFR3; [2]): 105% | remaining activity at 0.3 µM (RSK4; [1]): 79.4% | remaining activity at 0.3 µM (RSK4; [2]): 77.9% | remaining activity at 0.3 µM (RSK1; [1]): 76.2% | remaining activity at 0.3 µM (RSK1; [2]): 74.2% | remaining activity at 0.3 µM (MSSK1/STK23; [1]): 89.7% | remaining activity at 0.3 µM (MSSK1/STK23; [2]): 88.8% | remaining activity at 0.3 µM (CDK3/cyclin E; [1]): 98% | remaining activity at 0.3 µM (CDK3/cyclin E; [2]): 97.7% | remaining activity at 0.3 µM (LIMK2; [1]): 114% | remaining activity at 0.3 µM (LIMK2; [2]): 108%
Compound: COc1cc(N2CCN(C)CC2)c(C)cc1Nc1ncc(Br)c(Nc2cccnc2N(C)C)n1 [TP-5801]
